From patent US12227496B2 (BRISTOL-MYERS SQUIBB COMPANY, priority 2019, dated 2025)

Target: T1, human FXR (Homo sapiens, UniProt Q96RI1)
T1 construct: expressed in transfected cells; host or cells: HEK293 cells stably carrying a 5xGal4-response-element firefly luciferase reporter, transiently transfected with pcDNA3.1-Gal4-FXR
T1 sequence (Q96RI1 262-486 limits assumed): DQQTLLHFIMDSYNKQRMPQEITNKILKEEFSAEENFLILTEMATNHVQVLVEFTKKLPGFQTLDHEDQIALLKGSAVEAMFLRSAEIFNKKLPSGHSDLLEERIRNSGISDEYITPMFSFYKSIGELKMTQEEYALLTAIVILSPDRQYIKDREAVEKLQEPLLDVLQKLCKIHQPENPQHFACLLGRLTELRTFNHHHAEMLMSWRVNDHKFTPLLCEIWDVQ
Experiment: transient human FXR/Gal4-luciferase reporter assay
Assay type: cell-based
Conditions: Gal4-hFXR LBD fusion, luciferase reporter in HEK293 cells; response relative to 8 μM GW-4064
Outline: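 HEK293 cells stably carrying a 5×Gal4-response-element firefly luciferase reporter were transiently transfected with Gal4-hFXR. They were then incubated overnight at 37 °C with compound serial dilutions in medium containing 10% charcoal/dextran-stripped FBS. Luminescence was read after Steady-Glo addition.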

Question: How did the EC50 turn out when `CC1(C)CCCN(C(=O)N(CC23CCC(c4nc(C5CC5)no4)(CC2)CC3)c2cccc(-c3nc(C4CC4)no3)c2)C1` (racemic) [Example 62, N-((4-(3-cyclopropyl-1,2,4-oxadiazol-5-yl)bicyclo[2.2.2]octan-1-yl)methyl)-N-(3-(3-cyclopropyl-1,2,4-oxadiazol-5-yl)phenyl)-3,3-dimethylpiperidine-1-carboxamide] was run?
Answer: 3810 nM

Question: How did the EC50 turn out when `O=C(N1CCOCC1)N(CC12CCC(c3nc(C4CC4)no3)(CC1)CC2)c1cccc(-c2nc(C3CC3)no2)c1` [Example 56, N-((4-(3-cyclopropyl-1,2,4-oxadiazol-5-yl)bicyclo[2.2.2]octan-1-yl)methyl)-N-(3-(3-cyclopropyl-1,2,4-oxadiazol-5-yl)phenyl)morpholine-4-carboxamide] was run?
Answer: 739 nM

Question: How did the EC50 turn out when `COc1nccc(-c2cccc(N(CC34CCC(c5nc(C6CC6)no5)(CC3)CC4)C(=O)C3CCOCC3)c2)n1` [Example 84, N-((4-(3-cyclopropyl-1,2,4-oxadiazol-5-yl)bicyclo[2.2.2]octan-1-yl)methyl)-N-(3-(2-methoxypyrimidin-4-yl)phenyl)tetrahydro-2H-pyran-4-carboxamide] was run?
Answer: 1770 nM

Question: Which EC50 does the source give for `CC(C)(C)c1noc(C23CCC(CN(C(=O)C4CCC(F)(F)CC4)c4cccc(-c5cc(C6CC6)no5)c4)(CC2)CC3)n1` [Example 147, N-((4-(3-(tert-butyl)-1,2,4-oxadiazol-5-yl)bicyclo[2.2.2]octan-1-yl)methyl)-N-(3-(3-cyclopropylisoxazol-5-yl)phenyl)-4,4-difluorocyclohexane-1-carboxamide] here?
Answer: 205 nM

Question: How did the EC50 turn out when `O=C(C1CCCOC1)N(CC12CCC(c3nc(C4CC4)cs3)(CC1)CC2)c1cccc(-c2nc(C3CC3)no2)c1` (racemic) [Example 66, N-(3-(3-cyclopropyl-1,2,4-oxadiazol-5-yl)phenyl)-N-((4-(4-cyclopropylthiazol-2-yl)bicyclo[2.2.2]octan-1-yl)methyl)tetrahydro-2H-pyran-3-carboxamide] was run?
Answer: 1250 nM

Question: Which EC50 does the source give for `O=C(C1CCOCC1)N(CC12CCC(c3nc(C4CC4)no3)(CC1)CC2)c1cccc(-c2nc(C(F)F)co2)c1` [Example 36, N-((4-(3-cyclopropyl-1,2,4-oxadiazol-5-yl)bicyclo[2.2.2]octan-1-yl)methyl)-N-(3-(4-(difluoromethyl)oxazol-2-yl)phenyl)tetrahydro-2H-pyran-4-carboxamide] here?
Answer: 525 nM

Question: For `CC(C)(C)c1nnc(C23CCC(CN(C(=O)C4CCC(F)(F)CC4)c4cccc(-c5cc(C6CC6)on5)c4)(CC2)CC3)o1` [Example 124, N-((4-(5-(tert-Butyl)-1,3,4-oxadiazol-2-yl)bicyclo[2.2.2]octan-1-yl)methyl)-N-(3-(5-cyclopropylisoxazol-3-yl)phenyl)-4,4-difluorocyclohexane-1-carboxamide], which EC50 is on record?
Answer: 467 nM

Question: With `CCn1cc(-c2cccc(N(CC34CCC(c5nc(C6CC6)no5)(CC3)CC4)C(=O)C3CCOCC3)c2)oc1=O` [Example 51, N-((4-(3-cyclopropyl-1,2,4-oxadiazol-5-yl)bicyclo[2.2.2]octan-1-yl)methyl)-N-(3-(3-ethyl-2-oxo-2,3-dihydrooxazol-5-yl)phenyl)tetrahydro-2H-pyran-4-carboxamide] as the compound, how does the EC50 read?
Answer: 1190 nM

Question: `O=C(C1CCC(F)(F)CC1)N(CC12CCC(c3nc(C4CC4)no3)(CC1)CC2)c1cccc(-c2cnc(C3CC3)o2)c1` [Example 26, N-((4-(3-cyclopropyl-1,2,4-oxadiazol-5-yl)bicyclo[2.2.2]octan-1-yl)methyl)-N-(3-(2-cyclopropyloxazol-5-yl)phenyl)-4,4-difluorocyclohexane-1-carboxamide] was tested. Which EC50 did it give?
Answer: 355 nM

Question: For `CCc1noc(-c2cccc(N(CC34CCC(c5nc(C)no5)(CC3)CC4)C(=O)C3CCCCC3)c2)n1` [Example 3], which EC50 is on record?
Answer: 158 nM

Question: With `CCOc1ccnc(-c2cccc(N(CC34CCC(c5nc(C6CC6)no5)(CC3)CC4)C(=O)C3CCCCC3)c2)c1` [Example 77, N-((4-(3-cyclopropyl-1,2,4-oxadiazol-5-yl)bicyclo[2.2.2]octan-1-yl)methyl)-N-(3-(4-ethoxypyridin-2-yl)phenyl)cyclohexane carboxamide] as the compound, how does the EC50 read?
Answer: 268 nM

Question: How did the EC50 turn out when `CC(C)(C)c1noc(C23CCC(CN(C(=O)C4CCC(F)(F)CC4)c4cc(F)cc(-c5nc(C6CC6)no5)c4)(CC2)CC3)n1` [Example 114, N-((4-(3-(tert-butyl)-1,2,4-oxadiazol-5-yl)bicyclo[2.2.2]octan-1-yl)methyl)-N-(3-(3-cyclopropyl-1,2,4-oxadiazol-5-yl)-5-fluorophenyl)-4,4-difluorocyclohexane-1-carboxamide] was run?
Answer: 325 nM

Question: For `CC(C)(C)c1noc(C23CCC(CN(C(=O)C4CCC(F)(F)CC4)c4cccc(-c5cn[nH]c(=O)c5)c4)(CC2)CC3)n1` [Example 127, N-((4-(3-(tert-Butyl)-1,2,4-oxadiazol-5-yl)bicyclo[2.2.2]octan-1-yl)methyl)-4,4-difluoro-N-(3-(6-oxo-1,6-dihydropyridazin-4-yl)phenyl)cyclohexane-1-carboxamide], which EC50 is on record?
Answer: 4000 nM

Question: With `O=C(C1CCCCC1)N(CC12CCC(c3nc(C4CC4)no3)(CC1)CC2)c1cccc(-c2cnc(C3CCOCC3)o2)c1` [Example 34, N-((4-(3-cyclopropyl-1,2,4-oxadiazol-5-yl)bicyclo[2.2.2]octan-1-yl)methyl)-N-(3-(2-(tetrahydro-2H-pyran-4-yl)oxazol-5-yl)phenyl)cyclohexanecarboxamide] as the compound, how does the EC50 read?
Answer: 212 nM

Question: How did the EC50 turn out when `O=C(C1CCCCC1)N(CC12CCC(c3nc(C4CC4)no3)(CC1)CC2)c1cccc(-c2nc(C3CC3)no2)c1` [Example 13, N-((4-(3-cyclopropyl-1,2,4-oxadiazol-5-yl)bicyclo[2.2.2]octan-1-yl)methyl)-N-(3-(3-cyclopropyl-1,2,4-oxadiazol-5-yl)phenyl)cyclohexanecarboxamide] was run?
Answer: 82 nM

Question: `CCOc1ncc(-c2cccc(N(CC34CCC(c5nc(C6CC6)no5)(CC3)CC4)C(=O)C3CCCCC3)c2)o1` [Example 8, N-((4-(3-cyclopropyl-1,2,4-oxadiazol-5-yl)bicyclo[2.2.2]octan-1-yl)methyl)-N-(3-(2-ethoxyoxazol-5-yl)phenyl)cyclohexanecarboxamide] was tested. Which EC50 did it give?
Answer: 19 nM

Question: For `CCc1noc(-c2cccc(N(CC34CCC(c5nc(C6CC6)no5)(CC3)CC4)C(=O)C3CCCCC3)c2)n1` [Example 4, N-((4-(3-cyclopropyl-1,2,4-oxadiazol-5-yl)bicyclo[2.2.2]octan-1-yl)methyl)-N-(3-(3-ethyl-1,2,4-oxadiazol-5-yl)phenyl)cyclohexanecarboxamide], which EC50 is on record?
Answer: 49 nM

Question: How did the EC50 turn out when `CC(F)(F)c1nc(C23CCC(CN(C(=O)C4CCOCC4)c4cccc(-c5cn[nH]c(=O)c5)c4)(CC2)CC3)no1` [Example 129, N-((4-(5-(1,1-difluoroethyl)-1,2,4-oxadiazol-3-yl)bicyclo[2.2.2]octan-1-yl)methyl)-N-(3-(6-oxo-1,6-dihydropyridazin-4-yl)phenyl)tetrahydro-2H-pyran-4-carboxamide] was run?
Answer: 1480 nM

Question: For `CCOc1cc(-c2cccc(N(CC34CCC(c5nc(C6CC6)no5)(CC3)CC4)C(=O)C3CCCCC3)c2)no1` [Example 27, N-((4-(3-cyclopropyl-1,2,4-oxadiazol-5-yl)bicyclo[2.2.2]octan-1-yl)methyl)-N-(3-(5-ethoxyisoxazol-3-yl)phenyl)cyclohexanecarboxamide], which EC50 is on record?
Answer: 75 nM

Question: How did the EC50 turn out when `Cn1nc(C2CC2)cc1C12CCC(CN(C(=O)C3CCS(=O)(=O)CC3)c3cccc(-c4cc(C5CC5)on4)c3)(CC1)CC2` [Example 131, N-((4-(3-cyclopropyl-1-methyl-1H-pyrazol-5-yl)bicyclo[2.2.2]octan-1-yl)methyl)-N-(3-(5-cyclopropylisoxazol-3-yl)phenyl)tetrahydro-2H-thiopyran-4-carboxamide 1,1-dioxide] was run?
Answer: 1930 nM

Question: How did the EC50 turn out when `CC(F)(F)c1nc(C23CCC(CN(C(=O)C4CCOCC4)c4ccc(F)c(-c5ccc(P(C)(C)=O)cc5)c4)(CC2)CC3)no1` [Example 122, N-((4-(5-(1,1-difluoroethyl)-1,2,4-oxadiazol-3-yl)bicyclo[2.2.2]octan-1-yl)methyl)-N-(4′-(dimethylphosphoryl)-6-fluoro-[1,1′-biphenyl]-3-yl)tetrahydro-2H-pyran-4-carboxamide] was run?
Answer: 1320 nM

Question: For `CC(C)(C)c1nc(C23CCC(CN(C(=O)C4CCOCC4)c4cccc(-c5nc(C6CC6)no5)c4)(CC2)CC3)no1` [Example 116, N-((4-(5-(tert-butyl)-1,2,4-oxadiazol-3-yl)bicyclo[2.2.2]octan-1-yl)methyl)-N-(3-(3-cyclopropyl-1,2,4-oxadiazol-5-yl)phenyl)tetrahydro-2H-pyran-4-carboxamide], which EC50 is on record?
Answer: 61 nM

Question: How did the EC50 turn out when `O=C(C1CCC(F)(F)CC1)N(CC12CCC(c3noc(C(F)(F)F)n3)(CC1)CC2)c1cccc(-c2cnc(C3CC3)nc2)c1` [Example 119, N-(3-(2-cyclopropylpyrimidin-5-yl)phenyl)-4,4-difluoro-N-((4-(5-(trifluoromethyl)-1,2,4-oxadiazol-3-yl)bicyclo[2.2.2]octan-1-yl)methyl)cyclohexane-1-carboxamide] was run?
Answer: 290 nM

Question: For `O=C(C1CCCOC1)N(CC12CCC(c3nc(C4CC4)no3)(CC1)CC2)c1cccc(-c2nnc(C3CC3)o2)c1` (racemic) [Example 55, N-((4-(3-cyclopropyl-1,2,4-oxadiazol-5-yl)bicyclo[2.2.2]octan-1-yl)methyl)-N-(3-(5-cyclopropyl-1,3,4-oxadiazol-2-yl)phenyl)tetrahydro-2H-pyran-3-carboxamide], which EC50 is on record?
Answer: 929 nM

Question: `CC(C)(C)c1nc(C23CCC(CN(C(=O)C4CCS(=O)(=O)CC4)c4cccc(-c5nc(C6CC6)no5)c4)(CC2)CC3)no1` [Example 117, N-((4-(5-(tert-butyl)-1,2,4-oxadiazol-3-yl)bicyclo[2.2.2]octan-1-yl)methyl)-N-(3-(3-cyclopropyl-1,2,4-oxadiazol-5-yl)phenyl)tetrahydro-2H-thiopyran-4-carboxamide 1,1-dioxide] was tested. Which EC50 did it give?
Answer: 729 nM
